Reference: ChEMBL document CHEMBL4616634, “4β-Hydroxywithanolide E from Goldenberry (Whole Fruits of Physalis peruviana L.) as a Promising Agent against Chronic Obstructive Pulmonary Disease” (J Nat Prod, 2020)
Active and inactive are the calls of the source.

How the values were obtained:
Format in all cases: functional, organism-based
Mus musculus [1] = test: Antiinflammatory activity in C57BL/6 mouse model of CS-induced pulmonary injury assessed as reduction in thickening of the alveolar septa in lungs at 1 mg/kg, ip for 5 days by hematoxylin and eosin staining based fluorescence microscopic analysis
Mus musculus [2] = test: Antiinflammatory activity in C57BL/6 mouse model of CS-induced pulmonary injury assessed as reduction in 8-oxo-dG in lungs at 1 mg/kg, ip for 5 days by ELISA
Mus musculus [3] = test: Antiinflammatory activity in C57BL/6 mouse model of CS-induced pulmonary injury assessed as reduction in distinct infiltration of leukocytes in lungs at 1 mg/kg, ip for 5 days by hematoxylin and eosin staining based fluorescence microscopic analysis
Mus musculus [4] = test: Antiinflammatory activity in C57BL/6 mouse model of CS-induced pulmonary injury assessed as reduction in goblet cell hyperplasia in peribronchial in lungs at 1 mg/kg, ip for 5 days by hematoxylin and eosin staining based fluorescence microscopic analysis
Mus musculus [5] = test: Antiinflammatory activity in C57BL/6 mouse model of CS-induced pulmonary injury assessed as reduction in hyperplasia of pneumo-cytes in lungs at 1 mg/kg, […] by hematoxylin and eosin staining based fluorescence microscopic analysis
Mus musculus [6] = test: Antiinflammatory activity in C57BL/6 mouse model of CS-induced pulmonary injury assessed as reduction in goblet cell hyperplasia in perivascular areas in lungs at 1 mg/kg, ip for 5 days by hematoxylin and eosin staining based fluorescence microscopic analysis
Mus musculus [7] = test: Antiinflammatory activity in C57BL/6 mouse model of CS-induced pulmonary injury assessed as reduction in goblet cell hyperplasia in peribronchial in lungs at 50 mg/kg, ip for 5 days by hematoxylin and eosin staining based fluorescence microscopic analysis
Mus musculus [8] = test: Antiinflammatory activity in C57BL/6 mouse model of CS-induced pulmonary injury assessed as reduction in 8-oxo-dG in lungs at 50 mg/kg, ip for 5 days by ELISA
Mus musculus [9] = test: Antiinflammatory activity in C57BL/6 mouse model of CS-induced pulmonary injury assessed as reduction in distinct infiltration of leukocytes in lungs at 50 mg/kg, ip for 5 days by hematoxylin and eosin staining based fluorescence microscopic analysis
Mus musculus [10] = test: Antiinflammatory activity in C57BL/6 mouse model of CS-induced pulmonary injury assessed as reduction in thickening of the alveolar septa in lungs at 50 mg/kg, ip for 5 days by hematoxylin and eosin staining based fluorescence microscopic analysis
Mus musculus [11] = test: Antiinflammatory activity in C57BL/6 mouse model of CS-induced pulmonary injury assessed as reduction in goblet cell hyperplasia in perivascular areas in lungs at 50 mg/kg, ip for 5 days by hematoxylin and eosin staining based fluorescence microscopic analysis
Mus musculus [12] = test: Antiinflammatory activity in C57BL/6 mouse model of CS-induced pulmonary injury assessed as reduction in hyperplasia of pneumo-cytes in lungs at 50 mg/kg, ip for 5 days by hematoxylin and eosin staining based fluorescence microscopic analysis

Measured: Activity

C[C@@H]1C[C@H]2[C@@H]3CCC4=CC(=O)C=C[C@]4(C)[C@@]3(F)[C@@H](O)C[C@]2(C)[C@@]1(O)C(=O)CO
active: Mus musculus [1] | Mus musculus [2] | Mus musculus [3] | Mus musculus [4] | Mus musculus [5] | Mus musculus [6]

CC(C)(C)c1cc(O)ccc1O
active: Mus musculus [7] | Mus musculus [8] | Mus musculus [9] | Mus musculus [10] | Mus musculus [11] | Mus musculus [12]
